This passage reports EC50 results from US20250145594A1, “MODULATORS OF THE INTEGRATED STRESS PATHWAY” (Calico Life Sciences LLC, priority 2020, published 2025).

In the assay the test system is ATF4 luciferase reporter in HEK293T cells. The experiment in a line: ATF4-Luc assay (in vitro model of VWMD). The assay is classed as cell-based, human. The conditions noted are these: Homo sapiens, HEK-293T, 7 h, HEK293T cells carrying the ATF4 luciferase reporter, 1 μg/mL tunicamycin, One Glo luminescence. The essentials: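 Stable HEK293T line expressing firefly luciferase behind the human ATF4 5′-UTR, treated with 1 μg/mL tunicamycin plus compound for 7 hours. Luminescence read with One Glo; EC50 determined.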
For the molecule `O=C(CO[C@H]1C[C@@H](OC(F)(F)F)C1)N[C@@H]1C[C@@H]2C[C@H]1C[C@H]2NC(=O)[C@@H]1C[C@@H](O)c2cc(Cl)ccc2O1` [Compound 393, (2S,4R)-6-chloro-4-hydroxy-N-[(1S,2R,4S,5R)-5-(2-{[cis-3-(trifluoromethoxy)cyclobutyl]oxy}acetamido)bicyclo[2.2.1]heptan-2-yl]-3,4-dihydro-2H-1-benzopyran-2-carboxamide], the 50% effective concentration (EC50) lay within 50 to 250 nM. Turning to `COc1ccc2nn(C34CC(NC(=O)[C@H]5C[C@@H](O)c6cc(Cl)ccc6O5)(C3)C4)cc2n1` [Compound 462, (2R,4R)-6-chloro-4-hydroxy-N-[3-(5-methoxy-2H-pyrazolo[4,3-b]pyridin-2-yl)bicyclo[1.1.1]pentan-1-yl]-3,4-dihydro-2H-1-benzopyran-2-carboxamide], the EC50 is below 10 nM.

Take `O=C(COc1cc(F)c(Cl)c(Br)c1)N[C@H]1C[C@H]2C[C@@H]1C[C@@H]2NC(=O)CO[C@H]1C[C@@H](OC(F)(F)F)C1` [Compound 381, 2-(3-bromo-4-chloro-5-fluorophenoxy)-N-[(1R,2S,4R,5S)-5-(2-{[cis-3-(trifluoromethoxy)cyclobutyl]oxy}acetamido)bicyclo[2.2.1]heptan-2-yl]acetamide]: the EC50 is 10 to 50 nM. In the case of `O=C(COc1ccc(Cl)c(F)c1)NC12CC(c3ccc(C(=O)N4CCC(C(F)(F)F)C4)nc3)(C1)C2` (stereo not drawn) [Compound 619, 2-(4-chloro-3-fluorophenoxy)-N-(3-{6-[3-(trifluoromethyl)pyrrolidine-1-carbonyl]pyridin-3-yl}bicyclo[1.1.1]pentan-1-yl)acetamide], the EC50 was in the range of 10 to 50 nM.

Take `O=C(NC12CC(n3cnc(C(=O)N4CC(COC(F)(F)F)C4)c3)(C1)C2)[C@H]1C[C@@H](O)c2cc(Cl)ccc2O1` [Compound 368, (2R,4R)-6-chloro-4-hydroxy-N-[3-(4-{3-[(trifluoromethoxy)methyl]azetidine-1-carbonyl}-1H-imidazol-1-yl)bicyclo[1.1.1]pentan-1-yl]-3,4-dihydro-2H-1-benzopyran-2-carboxamide]: the EC50 was in the range of 10 to 50 nM.

For the molecule `O=C(NC12CC(n3cc(C(=O)N4CC(CC(F)F)C4)cn3)(C1)C2)[C@H]1C[C@@H](O)c2cc(Cl)ccc2O1` [Compound 377, (2R,4R)-6-chloro-N-(3-{4-[3-(2,2-difluoroethyl)azetidine-1-carbonyl]-1H-pyrazol-1-yl}bicyclo[1.1.1]pentan-1-yl)-4-hydroxy-3,4-dihydro-2H-1-benzopyran-2-carboxamide], the EC50 was 250 to 500 nM.

`O=C(N[C@H]1CC[C@H](n2cc(OCCCC(F)(F)F)cn2)CC1)[C@H]1C[C@@H](O)c2cc(Cl)ccc2O1` [Compound 526, (2R,4R)-6-chloro-4-hydroxy-N-{(1r,4R)-4-[4-(4,4,4-trifluorobutoxy)-1H-pyrazol-1-yl]cyclohexyl}-3,4-dihydro-2H-1-benzopyran-2-carboxamide]: the EC50 was 10 to 50 nM. For `O=C(NC12CC(n3cc(OCCOC(F)(F)F)cn3)(C1)C2)[C@H]1C[C@@H](O)c2cc(F)ccc2O1` [Compound 418, (2R,4R)-6-fluoro-4-hydroxy-N-(3-{4-[2-(trifluoromethoxy)ethoxy]-1H-pyrazol-1-yl}bicyclo[1.1.1]pentan-1-yl)-3,4-dihydro-2H-1-benzopyran-2-carboxamide] the value was 10 to 50 nM; for `O=C(COc1ccc(C(F)(F)F)cc1)NC12CC(n3cc(C(=O)N4CC[C@H](OC(F)(F)F)C4)cn3)(C1)C2` [Compound 604, N-(3-{4-[(3S)-3-(trifluoromethoxy)pyrrolidine-1-carbonyl]-1H-pyrazol-1-yl}bicyclo[1.1.1]pentan-1-yl)-2-[4-(trifluoromethyl)phenoxy]acetamide], below 10 nM. As for `O=C(NC12CC(n3cc(N4CC(OC(F)(F)F)C4)cn3)(C1)C2)[C@H]1C[C@@H](O)c2cc(Cl)ccc2O1` [Compound 352, (2R,4R)-6-chloro-4-hydroxy-N-(3-{4-[3-(trifluoromethoxy)azetidin-1-yl]-1H-pyrazol-1-yl}bicyclo[1.1.1]pentan-1-yl)-3,4-dihydro-2H-1-benzopyran-2-carboxamide], the figure is 10 to 50 nM. As for `O=C(NC12CC(n3cc(C(=O)N4CC[C@H](OC(F)(F)F)C4)cn3)(C1)C2)[C@H]1C[C@H](O)c2cc(Cl)ccc2O1` [Compound 585, (2R,4S)-6-chloro-4-hydroxy-N-(3-{4-[(3S)-3-(trifluoromethoxy)pyrrolidine-1-carbonyl]-1H-pyrazol-1-yl}bicyclo[1.1.1]pentan-1-yl)-3,4-dihydro-2H-1-benzopyran-2-carboxamide], the figure is below 10 nM; as for `COc1cc2cn(C34CC(NC(=O)[C@H]5C[C@@H](O)c6cc(Cl)c(F)cc6O5)(C3)C4)nc2cn1` [Compound 498, (2R,4R)-6-chloro-7-fluoro-4-hydroxy-N-[3-(5-methoxy-2H-pyrazolo[3,4-c]pyridin-2-yl)bicyclo[1.1.1]pentan-1-yl]-3,4-dihydro-2H-1-benzopyran-2-carboxamide], 10 to 50 nM. As for `O=C(NC12CCC(n3cc(-c4ccc(C(F)(F)F)cn4)cn3)(C1)C2)[C@H]1C[C@@H](O)c2cc(Cl)c(F)cc2O1` [Compound 627, (2R,4R)-6-chloro-7-fluoro-4-hydroxy-N-(4-{4-[5-(trifluoromethyl)pyridin-2-yl]-1H-pyrazol-1-yl}bicyclo[2.1.1]hexan-1-yl)-3,4-dihydro-2H-1-benzopyran-2-carboxamide], the EC50 was below 10 nM. `O=C(NC12CC(n3cc(-c4ccc(OC(F)(F)F)c(F)c4)cn3)(C1)C2)[C@H]1C[C@@H](O)c2cc(Cl)ccc2O1` [Compound 312, (2R,4R)-6-chloro-N-(3-{4-[3-fluoro-4-(trifluoromethoxy)phenyl]-1H-pyrazol-1-yl}bicyclo[1.1.1]pentan-1-yl)-4-hydroxy-3,4-dihydro-2H-1-benzopyran-2-carboxamide]: the EC50 was below 10 nM. Take `COc1cc2cn(C34CC(NC(=O)COc5ccc(Cl)c(Cl)c5)(C3)C4)nc2cn1` [Compound 622, 2-(3,4-dichlorophenoxy)-N-[3-(5-methoxy-2H-pyrazolo[3,4-c]pyridin-2-yl)bicyclo[1.1.1]pentan-1-yl]acetamide]: the EC50 lay within 10 to 50 nM. On to `CCOC(=O)OC[C@@H]1C[C@H]1c1cn(C23CC(NC(=O)[C@H]4C[C@@H](O)c5cc(Cl)ccc5O4)(C2)C3)nn1` (mixture of isomers) [Compound 543, ((1RS,2RS)-2-[1-(3-{[(2R,4R)-6-chloro-4-hydroxy-3,4-dihydro-2H-1-benzopyran-2-carbonyl]amino}bicyclo[1.1.1]pentan-1-yl)-1H-1,2,3-triazol-4-yl]cyclopropyl)methyl ethyl carbonate], for which the EC50 was below 10 nM.

Consider `O=C(NC12CC(n3cc(OCCCOC(F)(F)F)cn3)(C1)C2)[C@H]1C[C@@H](O)c2cc(C(F)(F)F)ccc2O1` [Compound 435, (2R,4R)-4-hydroxy-N-(3-{4-[3-(trifluoromethoxy)propoxy]-1H-pyrazol-1-yl}bicyclo[1.1.1]pentan-1-yl)-6-(trifluoromethyl)-3,4-dihydro-2H-1-benzopyran-2-carboxamide], for which the EC50 was below 10 nM.

As for `O=C(NC12CC(n3cc(-c4ccc(OC(F)(F)F)cn4)cn3)(C1)C2)[C@H]1C[C@@H](O)c2cc(Cl)c(Br)cc2O1` [Compound 380, (2R,4R)-7-bromo-6-chloro-4-hydroxy-N-(3-{4-[5-(trifluoromethoxy)pyridin-2-yl]-1H-pyrazol-1-yl}bicyclo[1.1.1]pentan-1-yl)-3,4-dihydro-2H-1-benzopyran-2-carboxamide], the EC50 is below 10 nM.
